“Also recorded” adds a separate entry of the source. Like-named read-outs stand apart in the source and are kept apart here.
Tests used:
LNCap cell cultures = experiment: Cytotoxicity in LNCap cell cultures; type: cell-based; settings: LNCap cell cultures (FIG. 3)
From the text: The excellent cytotoxicities of the DUPA conjugates served as an indication that the disulfide reduction and conversion of the intermediates to the base drugs (6 and 18) are occurring intracellularly. Although an increase in potency has not been observed yet, this encouraging result partially supported our initial hypothesis, and urged further optimization of the peptide linker to facilitate the drug releasing mechanism.

[1] = Water solubility at room temperature; type: physicochemical
22RV1 cells = experiment: cells; type: cell-based, human
Description: 22RV1 cells were seeded in 24-well (50000 cells/well) Falcon plates and allowed to form monolayers over a period of 24-48 h. The old medium was replaced with fresh medium (0.5 mL) containing increasing concentrations of drug (either targeted or non-targeted) and cells were incubated for an additional 2 h and 24 h (in the case of targeted drug) at 37° C. Cells were washed (3×0.5 mL) with fresh medium and incubated in fresh medium (0.5 mL) for another 66 h at 37° C. The spent medium in each well was replaced with fresh medium (0.5 mL) containing [^3H]-thymidine (1 mCi/mL), and the cells were incubated for additional 4 h at 37° C. to allow [^3H]-thymidine incorporation. The cells were then washed with medium (2×0.5 mL) and treated with 5% trichloroacetic acid (0.5 mL) for 10 min at room temperature. The trichloroacetic acid was replaced with 0.25 N NaOH (0.5 mL) and the cells were transferred to individual scintillation vials containing Ecolume scintillation cocktail (3.0 mL), mixed well to form homogeneous liquid, and counted in a liquid scintillation analyzer. IC50 values were calculated by plotting %[^3H]-thymidine incorporation versus log concentration of drugs (targeted and non-targeted) using in GraphPad Prism 4.
The IC50 value of the indenoisoquinoline 18 itself was 2.0 nM when determined after a 2 h incubation. […] An increase in potency of 86 relative to 18 was not observed. […] However, the potential value of the conjugate 86 is lack of cytotoxicity in “normal” cells, which would result in 86 being a less toxic anticancer drug.

22RV1 tumors = experiment: 22RV1 xenograft-bearing mice therapy study; settings: for tumor growth during the treatment period: alternate days; for tumor growth during the treatment period / toxicity to the animals: 3 days/week for 3 weeks; for toxicity to the animals / body weight during the treatment period: 40 nmol/mouse IP; for body weight during the treatment period: live mice, 3 days/week for 3 weeks (FIG. 6)
Top1 = biological target: T1, Top1 (Homo sapiens, UniProt P11387); experiment: Top1-mediated DNA cleavage assay; type: biochemical; set-up: key: 0: no inhibitory activity; +: between 20% and 50% activity; ++: between 50% and 75% activity; +++: between 75% and 95% activity; ++++: equipotent; +++++: more potent; settings: graded relative to 1 μM camptothecin
T1 sequence (P11387 1-765): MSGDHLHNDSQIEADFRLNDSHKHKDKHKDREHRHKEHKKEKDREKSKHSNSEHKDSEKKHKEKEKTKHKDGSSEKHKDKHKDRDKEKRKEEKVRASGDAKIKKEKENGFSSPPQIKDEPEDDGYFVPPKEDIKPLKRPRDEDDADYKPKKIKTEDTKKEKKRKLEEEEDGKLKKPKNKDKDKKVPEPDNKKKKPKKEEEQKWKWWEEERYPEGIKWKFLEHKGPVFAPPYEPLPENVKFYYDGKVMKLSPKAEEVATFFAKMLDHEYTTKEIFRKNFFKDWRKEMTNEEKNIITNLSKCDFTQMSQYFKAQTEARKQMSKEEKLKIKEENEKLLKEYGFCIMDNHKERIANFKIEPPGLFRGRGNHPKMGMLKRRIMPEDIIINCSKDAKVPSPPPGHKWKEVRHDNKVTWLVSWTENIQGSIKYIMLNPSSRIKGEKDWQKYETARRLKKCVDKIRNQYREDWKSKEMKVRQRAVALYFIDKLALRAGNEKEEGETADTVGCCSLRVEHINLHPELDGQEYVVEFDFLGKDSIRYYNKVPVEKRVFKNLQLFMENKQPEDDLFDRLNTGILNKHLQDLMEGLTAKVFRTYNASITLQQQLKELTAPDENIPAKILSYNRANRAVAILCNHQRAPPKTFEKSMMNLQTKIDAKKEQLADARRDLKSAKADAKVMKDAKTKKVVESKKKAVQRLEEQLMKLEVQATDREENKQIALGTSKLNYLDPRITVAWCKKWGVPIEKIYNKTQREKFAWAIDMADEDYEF

[2] = tested on: NCI panel of 60 human cancer cell lines; experiment: Cytotoxicity mean-graph midpoint in NCI panel of 60 cancer cell lines; type: cell-based; settings: for MGM (μM), cytotoxicity mean-graph midpoint: approximate average of GI50 across the panel
PSMA = PSMA ligand, literature value; cited from earlier work
[3] = Table 1, average of two determinations

**Q.** Which results are given for `COc1cc2c3c(n(CCCN4CCOCC4)c(=O)c2cc1OC)-c1cc(OC)c(OC(=O)OCCSSC[C@H](NC(=O)[C@H](CC(=O)O)NC(=O)[C@@H](N)CNC(=O)[C@H](Cc2ccccc2)NC(=O)[C@H](Cc2ccccc2)NC(=O)CCCCCCCNC(=O)CC[C@H](NC(=O)N[C@@H](CCC(=O)O)C(=O)O)C(=O)O)C(=O)O)cc1C3=O` [Compound 86, (8R,11S,14S,18S,21S,35S,39S)-14-Amino-18,21-dibenzyl-11-(carboxymethyl)-1,10,13,17,20,23,32,37-octaoxo-1-((2,3,8-trimethoxy-6-(3-morpholinopropyl)-5,11-dioxo-6,11-dihydro-5H-indeno[1,2-c]isoquinolin-9-yl)oxy)-2-oxa-5,6-dithia-9,12,16,19,22,31,36,38-octaazahentetracontane-8,35,39,41-tetracarboxylic Acid]?
**A.** cytotoxicities (LNCap cell cultures): low nanomolar range; solubility in water [1]: dissolved easily; solubility in water ([1]; listed as 30): dissolve completely and easily; IC50 (22RV1 cells; 24-hour incubation, read-out: IC50): 11.4 nM; IC50 (22RV1 cells; 2 h incubation): no activity; deaths of animals during the treatment period (22RV1 tumors; 40 nmol/mouse (2.0 μmol/kg) IP, 5 mice per group): not lethal; also recorded: no deaths; tumor growth during the treatment period (22RV1 tumors; 40 nmol/mouse (2.0 μmol/kg) IP): cessation of tumor growth; toxicity to the animals (22RV1 tumors): non-toxic; antitumor activity in competition group (22RV1 tumors; 86 at 40 nmol/mouse IP plus PSMA competitor 28 in 10-fold excess): complete loss of activity; body weight during the treatment period (22RV1 tumors): retained their normal body weights

**Q.** With `NCCCn1c2c(c3ccc([N+](=O)[O-])cc3c1=O)C(=O)c1cc3c(cc1-2)OCO3` as the molecule, how does the “Top1 inhibitory activity” value (Top1; Table 2) read?
**A.** ++++

**Q.** And the “MGM (μM), cytotoxicity mean-graph midpoint” value (from here on “MGM (μM)”) ([2]; Table 2)?
**A.** 0.090 µM

**Q.** Which results are given for `COc1ccc2c(c1)C(=O)c1c-2n(CCCNC(=O)OCCSSC[C@H](NC(=O)[C@H](CC(=O)O)NC(=O)[C@@H](N)CNC(=O)[C@H](Cc2ccccc2)NC(=O)[C@H](Cc2ccccc2)NC(=O)CCCCCCCNC(=O)CC[C@H](NC(=O)N[C@@H](CCC(=O)O)C(=O)O)C(=O)O)C(=O)O)c(=O)c2cc([N+](=O)[O-])ccc12` [Compound 84, (12R,15S,18S,22S,25S,39S,43S)-18-Amino-22,25-dibenzyl-15-(carboxymethyl)-1-(9-methoxy-3-nitro-5,11-dioxo-5,11-dihydro-6H-indeno[1,2-c]isoquinolin-6-yl)-5,14,17,21,24,27,36,41-octaoxo-6-oxa-9,10-dithia-4,13,16,20,23,26,35,40,42-nonaazapentatetracontane-12,39,43,45-tetracarboxylic acid]?
**A.** cytotoxicities (LNCap cell cultures): low nanomolar range; solubility in water [1]: dissolve completely and easily

**Q.** For `COc1cc2c3c(n(CCCN4CCOCC4)c(=O)c2cc1OC)-c1cc2c(cc1C3=O)OCO2` [drawing 73], which “Top1 inhibitory activity” value (Top1; Table 2) is on record?
**A.** ++++

**Q.** And the “MGM (μM)” value ([2]; Table 2)?
**A.** 0.079 µM

**Q.** What does the source list for `Cl.NCCCn1c2c(c3ccc([N+](=O)[O-])cc3c1=O)C(=O)c1cc3c(cc1-2)OCO3` [Compound 16, 6-(3-Aminopropyl)-5,6-dihydro-8,9-methylenedioxy-3-nitro-5,11-dioxo-11H-indeno[1,2-c]isoquinoline Hydrochloride]?
**A.** Top1 inhibitory activity (Top1; Table 1): ++++; MGM (μM), cytotoxicity mean-graph midpoint [2, 3]: 0.090 µM

**Q.** What does the source list for `COc1ccc2c(c1)C(=O)c1c-2n(CCCNCCO)c(=O)c2cc([N+](=O)[O-])ccc12` [Compound 15]?
**A.** Top1 inhibitory activity (Top1; Table 1): ++++; MGM (μM), cytotoxicity mean-graph midpoint [2, 3]: 0.016 µM

**Q.** With `NCCCn1c2c(c3ccc(Br)cc3c1=O)C(=O)c1cc3c(cc1-2)OCO3` as the molecule, how does the “Top1 inhibitory activity” value (Top1; Table 2) read?
**A.** ++++

**Q.** And the “MGM (μM)” value ([2]; Table 2)?
**A.** 0.329 µM

**Q.** What does the source list for `COc1ccc2c(c1)C(=O)c1c-2n(CCCN)c(=O)c2cc([N+](=O)[O-])ccc12` [Compound 6]?
**A.** cytotoxicities (LNCap cell cultures): low nanomolar range; Top1 inhibitory activity (Top1; Table 1): ++++; MGM (μM), cytotoxicity mean-graph midpoint [2, 3]: 0.047 µM

**Q.** For `Br.COc1cc2c(cc1O)C(=O)c1c-2n(CCCN2CCOCC2)c(=O)c2cc([N+](=O)[O-])ccc12` [Compound 13, 9-Hydroxy-8-methoxy-6-(3-morpholinopropyl)-3-nitro-5H-indeno[1,2-c]isoquinoline-5,11(6H)-dione hydrobromide], which Top1 inhibitory activity (Top1; Table 1) is on record?
**A.** ++ (between 50% and 75% activity)

**Q.** And the “MGM (μM)” value [2, 3]?
**A.** 0.021 µM

**Q.** What does the source list for `COc1cc2c(cc1O)C(=O)c1c-2n(CCCN2CCOCC2)c(=O)c2cc(OC)c(OC)cc12` [Compound 18]?
**A.** cytotoxicities (LNCap cell cultures): low nanomolar range; IC50 (22RV1 cells; Homo sapiens, 2 h incubation, read-out: IC50): 2 nM; tumor growth during the treatment period (22RV1 tumors; 40 nmol/mouse (2.0 μmol/kg) IP): regression of tumor growth; toxicity to the animals (22RV1 tumors): toxic; body weight during the treatment period (22RV1 tumors): retained their normal body weights; Top1 inhibitory activity (Top1): +++++; GI50 ([2]; Homo sapiens, NCI's panel of 60 cancer cell lines, read-out: cytotoxicity mean-graph midpoint (MGM) GI50 value): 87 nM

**Q.** Which “Top1 inhibitory activity” value (Top1; Table 2) does the source give for `COc1cc2c3c(n(CCCN4CCOCC4)c(=O)c2cc1OC)-c1cc2c(cc1C3=O)OCO2` [drawing 72] here?
**A.** ++++

**Q.** What about the “MGM (μM)” value ([2]; Table 2) of the same molecule?
**A.** 4.64 µM

**Q.** With `Br.COc1cc2c(cc1O)C(=O)c1c-2n(CCCN)c(=O)c2cc([N+](=O)[O-])ccc12` [Compound 12, 6-(3-Aminopropyl)-9-hydroxy-8-methoxy-3-nitro-5H-indeno[1,2-c]isoquinoline-5,11(6H)-dione hydrobromide] as the molecule, how does the Top1 inhibitory activity (Top1; Table 1) read?
**A.** ++ (between 50% and 75% activity)

**Q.** And the “MGM (μM)” value [2, 3]?
**A.** 0.019 µM

**Q.** With `Br.COc1cc2c(cc1O)C(=O)c1c-2n(CCCn2ccnc2)c(=O)c2cc([N+](=O)[O-])ccc12` [Compound 14, 6-(3-(1H-Imidazol-1-yl)propyl)-9-hydroxy-8-methoxy-3-nitro-5H-indeno[1,2-c]isoquinoline-5,11(6H)-dione hydrobromide] as the molecule, how does the Top1 inhibitory activity (Top1; Table 1) read?
**A.** + (between 20% and 50% activity)

**Q.** What about the “MGM (μM)” value [2, 3] of the same molecule?
**A.** 0.019 µM

**Q.** For `O=C(O)CCC(NC(=O)NC(CCC(=O)O)C(=O)O)C(=O)O` (stereo not drawn) [DUPA, 2-[3-(1,3-Dicarboxypropyl)-Ureido]Pentanedioic Acid], which IC50 (PSMA) is on record?
**A.** 47 nM

**Q.** And the Ki (PSMA)?
**A.** 8 nM

Reference: US20160367685A1, “DUPA-INDENOISOQUINOLINE CONJUGATES” (PURDUE RESEARCH FOUNDATION, priority 2013, published 2016)
